Data: PubChem BioAssay AID248 (DTP/NCI, 2004)
Several values for one entry are separate records, joined by “and”; a condition that tells them apart may be missing. Equal entries are not always repeated. Inconclusive results and toxic doses are left out. Rule as the data show it: active = T/C of 150% or more; inactive = T/C below 125%.

Test system: L1210 leukemia ip in BDF1 mice, survival T/C
Assay: NCI In Vivo Anticancer Drug Screen. Data for tumor model L1210 Leukemia (intraperitoneal) in B6D2F1 (BDF1) mice
Conditions: endpoint: mean survival time, higher = longer survival
Procedure, shortened: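 Antitumor effect is assessed in tumor-bearing animals. Survival in the compound arm is compared with a vehicle-dosed control arm and expressed as their quotient.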

[1] = dose: 100.0 mg/kg/injection, schedule: Q01DX009 (ip), vehicle: saline with Tween-80
[2] = dose: 200.0 mg/kg/injection, schedule: Q01DX009 (ip), vehicle: saline with Tween-80
[3] = dose: 100.0 mg/kg/injection, schedule: Q01DX009 (ip), vehicle: Klucel (hydroxypropylcellulose) (HPC)
[4] = dose: 200.0 mg/kg/injection, schedule: Q01DX009 (ip), vehicle: Klucel (hydroxypropylcellulose) (HPC)
[5] = dose: 400.0 mg/kg/injection, schedule: Q01DX009 (ip), vehicle: Klucel (hydroxypropylcellulose) (HPC)
[6] = dose: 50.0 mg/kg/injection, schedule: Q01DX009 (ip), vehicle: saline with Tween-80
[7] = dose: 100.0 mg/kg/injection, schedule: Q04DX003 (ip), vehicle: saline with Tween-80
[8] = dose: 100.0 mg/kg/injection, schedule: Q04DX003 (ip), vehicle: Klucel (hydroxypropylcellulose) (HPC)
[9] = dose: 200.0 mg/kg/injection, schedule: Q04DX003 (ip), vehicle: Klucel (hydroxypropylcellulose) (HPC)
[10] = dose: 400.0 mg/kg/injection, schedule: Q04DX003 (ip), vehicle: Klucel (hydroxypropylcellulose) (HPC)
[11] = dose: 25.0 mg/kg/injection, schedule: Q04DX003 (ip), vehicle: saline
[12] = dose: 100.0 mg/kg/injection, schedule: Q01DX009 (ip), vehicle: saline
[13] = dose: 100.0 mg/kg/injection, schedule: Q04DX003 (ip), vehicle: saline
[14] = dose: 100.0 mg/kg/injection, schedule: Q01DX001 (ip), vehicle: saline
[15] = dose: 200.0 mg/kg/injection, schedule: Q01DX001 (ip), vehicle: saline

Measured: T/C

N=C(N)c1ccc(OCCCCCCOc2ccc(C(=N)N)cc2I)cc1
inactive: dose: 6.25 mg/kg/injection, schedule: Q01DX Z (oral), vehicle: saline 103 % of control | dose: 12.5 mg/kg/injection, schedule: Q01DX Z (oral), vehicle: saline 103 % of control | dose: 25.0 mg/kg/injection, schedule: Q01DX Z (oral), vehicle: saline 97 % of control | dose: 50.0 mg/kg/injection, schedule: Q01DX Z (oral), vehicle: saline 101 % of control | dose: 100.0 mg/kg/injection, schedule: Q01DX Z (oral), vehicle: saline 100 % of control | dose: 200.0 mg/kg/injection, schedule: Q01DX Z (oral), vehicle: saline 100 % of control

Nc1ccc(N)cc1
inactive: dose: 1.5 mg/kg/injection, schedule: Q01DX009 (ip), vehicle: DMSO 94 % of control | dose: 3.0 mg/kg/injection, schedule: Q01DX009 (ip), vehicle: DMSO 92 % of control | dose: 5.0 mg/kg/injection, schedule: Q01DX001 (ip), vehicle: saline 98 % of control | dose: 5.0 mg/kg/injection, schedule: Q01DX009 (ip), vehicle: saline with Tween-80 100 % of control | dose: 5.0 mg/kg/injection, schedule: Q04DX003 (ip), vehicle: saline 103 % of control | dose: 6.0 mg/kg/injection, schedule: Q01DX009 (ip), vehicle: DMSO 92 % of control | dose: 6.25 mg/kg/injection, schedule: Q01DX009 (ip), vehicle: DMSO 94 % of control | dose: 10.0 mg/kg/injection, schedule: Q01DX001 (ip), vehicle: saline 102 % of control | dose: 10.0 mg/kg/injection, schedule: Q01DX009 (ip), vehicle: saline with Tween-80 96 % of control | dose: 10.0 mg/kg/injection, schedule: Q04DX003 (ip), vehicle: saline 98 % of control | dose: 12.5 mg/kg/injection, schedule: Q01DX009 (ip), vehicle: DMSO 89 % of control | dose: 20.0 mg/kg/injection, schedule: Q01DX001 (ip), vehicle: saline 106 % of control | dose: 20.0 mg/kg/injection, schedule: Q01DX009 (ip), vehicle: saline with Tween-80 99 % of control | dose: 20.0 mg/kg/injection, schedule: Q04DX003 (ip), vehicle: saline 97 % of control | dose: 40.0 mg/kg/injection, schedule: Q01DX001 (ip), vehicle: saline 106 % of control | dose: 100.0 mg/kg/injection, schedule: Q04DX003 (ip), vehicle: DMSO 91 % of control | dose: 200.0 mg/kg/injection, schedule: Q04DX003 (ip), vehicle: DMSO 88 % of control

O=C(O)C(Cc1ccccc1)NC(=O)C(F)(F)F (stereo unspecified)
inactive: dose: 100.0 mg/kg/injection, schedule: Q04DX003 (ip), vehicle: other 90 % of control | dose: 200.0 mg/kg/injection, schedule: Q04DX003 (ip), vehicle: other 89 % of control

CSc1ccc(NC(=S)NC(=O)c2ccc(Cl)cc2Cl)cc1
inactive: [1] 93 % of control and 89 % of control | dose: 100.0 mg/kg/injection, schedule: Q04DX002 (ip), vehicle: saline with Tween-80 90 % of control and 92 % of control | [2] 96 % of control and 88 % of control | dose: 200.0 mg/kg/injection, schedule: Q04DX002 (ip), vehicle: saline with Tween-80 93 % of control and 100 % of control | dose: 400.0 mg/kg/injection, schedule: Q01DX009 (ip), vehicle: saline with Tween-80 96 % of control and 100 % of control | dose: 400.0 mg/kg/injection, schedule: Q04DX002 (ip), vehicle: saline with Tween-80 107 % of control and 90 % of control

CCCCC[n+]1cccc(C#N)c1
inactive: dose: 37.5 mg/kg/injection, schedule: Q04DX003 (ip), vehicle: saline 100 % of control | dose: 75.0 mg/kg/injection, schedule: Q01DX001 (ip), vehicle: saline 96 % of control | dose: 75.0 mg/kg/injection, schedule: Q04DX003 (ip), vehicle: saline 91 % of control | dose: 150.0 mg/kg/injection, schedule: Q01DX001 (ip), vehicle: saline 100 % of control | dose: 150.0 mg/kg/injection, schedule: Q04DX003 (ip), vehicle: saline 100 % of control

CCc1ccccc1NC(=O)NCc1ccc(C)c(C)c1
inactive: dose: 25.0 mg/kg/injection, schedule: Q01DX009 (ip), vehicle: Klucel (hydroxypropylcellulose) (HPC) 98 % of control | dose: 50.0 mg/kg/injection, schedule: Q01DX009 (ip), vehicle: Klucel (hydroxypropylcellulose) (HPC) 93 % of control | [3] 93 % of control | [4] 94 % of control | [5] 98 % of control

CCN(CC)CC(Cl)CN(CC)CC
inactive: [6] 104 % of control | [1] 87 % of control | [7] 97 % of control | dose: 200.0 mg/kg/injection, schedule: Q04DX003 (ip), vehicle: saline with Tween-80 88 % of control

CC1CC(=O)Nc2ccccc2N1 (stereo unspecified)
inactive: [8] 97 % of control | [9] 100 % of control | [10] 103 % of control

CCN1Cc2ccc(O)cc2C1
inactive: dose: 25.0 mg/kg/injection, schedule: Q01DX009 (ip), vehicle: saline 103 % of control | [11] 107 % of control | dose: 50.0 mg/kg/injection, schedule: Q01DX009 (ip), vehicle: saline 95 % of control | dose: 50.0 mg/kg/injection, schedule: Q04DX003 (ip), vehicle: saline 107 % of control | [12] 96 % of control and 97 % of control | [13] 100 % of control and 102 % of control

Cc1cccc(C)c1CNC(=O)NCCCl
inactive: [8] 98 % of control | [9] 95 % of control | [10] 104 % of control

O=[N+]([O-])c1ccc(S(=O)CCCl)c([N+](=O)[O-])c1 (stereo unspecified)
inactive: dose: 6.25 mg/kg/injection, schedule: Q04DX003 (ip), vehicle: saline 96 % of control | dose: 12.5 mg/kg/injection, schedule: Q04DX003 (ip), vehicle: saline 97 % of control | dose: 25.0 mg/kg/injection, schedule: Q04DX003 (ip), vehicle: saline with Tween-80 100 % of control | [11] 97 % of control

COC1(OC)C2CCC1C(O)C2 (stereo unspecified)
inactive: [12] 104 % of control | dose: 200.0 mg/kg/injection, schedule: Q01DX009 (ip), vehicle: saline 105 % of control

CCP(=O)(CC)OCCCCOP(=O)(CC)CC
inactive: dose: 75.0 mg/kg/injection, schedule: Q01DX Z (ip), vehicle: saline 104 % of control | dose: 100.0 mg/kg/injection, schedule: Q01DX Z (ip), vehicle: saline 98 % of control

CC(NC1CCCCC1)C(=O)O (stereo unspecified)
inactive: dose: 12.5 mg/kg/injection, schedule: Q04DX002 (ip), vehicle: Klucel (hydroxypropylcellulose) (HPC) 93 % of control | dose: 25.0 mg/kg/injection, schedule: Q04DX002 (ip), vehicle: Klucel (hydroxypropylcellulose) (HPC) 96 % of control | dose: 50.0 mg/kg/injection, schedule: Q04DX002 (ip), vehicle: Klucel (hydroxypropylcellulose) (HPC) 89 % of control

Nc1ccc(C(=O)N/N=C/c2ccc(N(CCBr)CCBr)cc2)cc1
inactive: dose: 12.5 mg/kg/injection, schedule: Q01DX Z (ip), vehicle: carboxymethylcellulose (CMC) 124 % of control | [14] 98 % of control | [15] 108 % of control

Cc1ccn(C)n1
inactive: dose: 100.0 mg/kg/injection, schedule: Q04DX002 (ip), vehicle: saline 103 % of control | dose: 200.0 mg/kg/injection, schedule: Q04DX002 (ip), vehicle: saline 97 % of control | dose: 400.0 mg/kg/injection, schedule: Q04DX002 (ip), vehicle: saline 93 % of control

COC(=O)/C(Br)=C\c1ccc(-c2ccccc2)cc1
inactive: [6] 93 % of control | [1] 93 % of control | [2] 93 % of control

Cc1cccc(C2CCCC2c2ccccc2)c1 (stereo unspecified)
inactive: [3] 96 % of control | [8] 110 % of control | [4] 89 % of control | [9] 94 % of control | [5] 101 % of control | [10] 108 % of control

CC(C)CC[n+]1ccc(C(N)=O)cc1
inactive: [14] 97 % of control | [13] 98 % of control | [15] 100 % of control | dose: 200.0 mg/kg/injection, schedule: Q04DX003 (ip), vehicle: saline 97 % of control | dose: 400.0 mg/kg/injection, schedule: Q01DX001 (ip), vehicle: saline 95 % of control | dose: 400.0 mg/kg/injection, schedule: Q04DX003 (ip), vehicle: saline 104 % of control

[O-][n+]1c2ccccc2c(Oc2ccccc2)c2ccc3ccccc3c21
inactive: [7] 95 % of control | dose: 400.0 mg/kg/injection, schedule: Q04DX003 (ip), vehicle: saline with Tween-80 92 % of control
